Here are results for five compounds from publication PMC6172315, “Relative Selectivity of Plant Cardenolides for Na^+/K^+-ATPases From the Monarch Butterfly and Non-resistant Insects” (Frontiers in Plant Science, 2018).

The structures appear in SMILES notation. “Also recorded” adds a separate entry of the source.

The target in data set [1] is D. plexippus-Na^+/K^+-ATPase (Danaus plexippus, UniProt K0G7C4). Kind of data set: In vitro inhibition assay of D. plexippus Na+/K+-ATPase (phosphate release). In kind it is biochemical. As to conditions: for inhibition of D. plexippus Na^+/K^+-ATPase compared to ouabain: DP, F-test comparison of entire dose-response curves with ouabain; for IC50: read-out: IC50 D. plexippus- Na^+/K^+-ATPase, Na+/K+-ATPase extracted from butterfly brains. On the procedure: (§1) Danaus plexippus was caught in the field or purchased; E. core and S. gregaria were obtained commercially, with additional E. core from a laboratory colony. […] Briefly, brains dissected from butterflies stored at -80°C or recta from locusts were homogenized (individually or pooled) with an all glass grinder (Wheaton) in deionized water, frozen at -80°C, freeze-dried, and stored frozen until use. For in vitro assays, lyophilisates were dissolved in water, sonicated in an ultrasonic bath, and centrifuged to remove undissolved matter. All cardiac glycosides were tested at least with three biological replicates of Na^+/K^+-ATPase (i.e., Na^+/K^+-ATPase from genetically different specimens or pools of specimens).
Sequence of D. plexippus-Na^+/K^+-ATPase (K0G7C4 1-1009): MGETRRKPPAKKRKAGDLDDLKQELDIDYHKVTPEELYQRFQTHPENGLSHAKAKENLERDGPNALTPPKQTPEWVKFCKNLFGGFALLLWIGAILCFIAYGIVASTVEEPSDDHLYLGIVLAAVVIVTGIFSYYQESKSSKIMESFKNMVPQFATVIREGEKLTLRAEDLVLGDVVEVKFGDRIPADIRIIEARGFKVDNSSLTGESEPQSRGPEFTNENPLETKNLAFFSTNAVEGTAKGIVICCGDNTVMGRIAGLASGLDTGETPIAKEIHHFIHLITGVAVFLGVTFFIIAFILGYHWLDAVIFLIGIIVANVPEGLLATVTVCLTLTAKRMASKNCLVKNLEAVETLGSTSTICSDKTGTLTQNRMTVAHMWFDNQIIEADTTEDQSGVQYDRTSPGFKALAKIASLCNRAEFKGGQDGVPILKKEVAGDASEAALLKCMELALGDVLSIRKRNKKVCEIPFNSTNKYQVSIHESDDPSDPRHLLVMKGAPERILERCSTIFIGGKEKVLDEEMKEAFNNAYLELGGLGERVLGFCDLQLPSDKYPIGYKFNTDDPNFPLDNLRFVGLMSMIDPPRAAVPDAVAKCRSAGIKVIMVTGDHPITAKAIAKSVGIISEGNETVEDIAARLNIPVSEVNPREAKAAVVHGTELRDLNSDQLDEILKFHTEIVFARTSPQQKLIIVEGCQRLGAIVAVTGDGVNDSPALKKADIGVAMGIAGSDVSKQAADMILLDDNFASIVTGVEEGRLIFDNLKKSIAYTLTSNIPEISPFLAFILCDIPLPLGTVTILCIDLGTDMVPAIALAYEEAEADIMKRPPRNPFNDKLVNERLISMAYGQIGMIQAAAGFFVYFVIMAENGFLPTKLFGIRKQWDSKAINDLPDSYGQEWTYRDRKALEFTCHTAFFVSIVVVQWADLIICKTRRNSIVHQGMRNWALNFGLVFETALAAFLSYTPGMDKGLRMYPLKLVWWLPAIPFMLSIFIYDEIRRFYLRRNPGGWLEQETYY
(§2) Means of duplicate determinations (i.e., technical replicates) were used as data points. In consequence, each data point of a dose–response curve is the mean of at least three biological replicates based on two technical replicates, each. […] Here, technical replicates collected on the same 96-well plate were averaged and used as data points.
(§3) Stock solutions of cardiac glycosides, as well as pregnane glycosides, were prepared from crystalline compounds in DMSO. While concentrations of all other compounds were based on mass, calactin, and calotropin stock solutions were adjusted with HPLC using digitoxin as a reference.
(§4) Pairwise statistical comparisons of dose-response curves were carried out using the “compare datasets” option in OriginPro, which is based on an F-Test evaluating if the two curves are identical. Correlation analyses using log10-transformed IC50 values was also carried out with OriginPro. […] To analyze relative selectivity without a reference, we also plotted the fold differences between the IC50 values of individual cardenolides for non-adapted and adapted insect Na^+/K^+-ATPase and compared them to mammalian (lamb) Na^+/K^+-ATPase (Figure 2).

Data set [2] has as its target S. gregaria-Na^+/K^+-ATPase (Schistocerca gregaria, UniProt A0A8E5JSN5). In kind it is biochemical. As to conditions: for IC50: read-out: IC50 S. gregaria- Na^+/K^+-ATPase, Na+/K+-ATPase extracted from locust recta. As to the method:
as §1, §2, §3, §4

A short description of the next data set: physchem. As to conditions: for solubility: aqueous with cosolvent or surfactant or cyclodextrin, kinetic from dmso stock. As to the method: as §3
For the next data set, the target named is E. core-Na^+/K^+-ATPase (Euploea core, UniProt A0A5C0C9F5). Kind of data set: In vitro inhibition assay of E. core Na+/K+-ATPase (phosphate release). Type of data set: biochemical. As to conditions: for inhibition of E. core Na^+/K^+-ATPase compared to ouabain: EC, F-test comparison of entire dose-response curves with ouabain; for IC50: read-out: IC50 E. core- Na^+/K^+-ATPase, Na+/K+-ATPase extracted from butterfly brains. As to the method:
as §1, §2, §3, §4

Another data set deals with porcine Na^+/K^+-ATPase. As to the kind of experiment: In vitro inhibition assay of porcine Na+/K+-ATPase. Type of data set: biochemical, pig. As to conditions: for IC50: purified from pig brain, 0.01 U/ml in the assay. As to the method: Lyophilized Na^+/K^+-ATPase was dissolved in water to a concentration of 1 U/ml, stored at -80°C in single-use aliquots and diluted with H2O to 0.05 U/ml for use in the in vitro assay (final concentration in the assay 0.01 U/ml).
as §4

Details of data set [3]: method as in Imai et al., 1965. As to conditions: ref Imai et al., 1965; cited from earlier work.
Setting [4] is: both dissolved in 25% DMSO, F-test of curves.

Sequence of E. core-Na^+/K^+-ATPase (A0A5C0C9F5 1-1013): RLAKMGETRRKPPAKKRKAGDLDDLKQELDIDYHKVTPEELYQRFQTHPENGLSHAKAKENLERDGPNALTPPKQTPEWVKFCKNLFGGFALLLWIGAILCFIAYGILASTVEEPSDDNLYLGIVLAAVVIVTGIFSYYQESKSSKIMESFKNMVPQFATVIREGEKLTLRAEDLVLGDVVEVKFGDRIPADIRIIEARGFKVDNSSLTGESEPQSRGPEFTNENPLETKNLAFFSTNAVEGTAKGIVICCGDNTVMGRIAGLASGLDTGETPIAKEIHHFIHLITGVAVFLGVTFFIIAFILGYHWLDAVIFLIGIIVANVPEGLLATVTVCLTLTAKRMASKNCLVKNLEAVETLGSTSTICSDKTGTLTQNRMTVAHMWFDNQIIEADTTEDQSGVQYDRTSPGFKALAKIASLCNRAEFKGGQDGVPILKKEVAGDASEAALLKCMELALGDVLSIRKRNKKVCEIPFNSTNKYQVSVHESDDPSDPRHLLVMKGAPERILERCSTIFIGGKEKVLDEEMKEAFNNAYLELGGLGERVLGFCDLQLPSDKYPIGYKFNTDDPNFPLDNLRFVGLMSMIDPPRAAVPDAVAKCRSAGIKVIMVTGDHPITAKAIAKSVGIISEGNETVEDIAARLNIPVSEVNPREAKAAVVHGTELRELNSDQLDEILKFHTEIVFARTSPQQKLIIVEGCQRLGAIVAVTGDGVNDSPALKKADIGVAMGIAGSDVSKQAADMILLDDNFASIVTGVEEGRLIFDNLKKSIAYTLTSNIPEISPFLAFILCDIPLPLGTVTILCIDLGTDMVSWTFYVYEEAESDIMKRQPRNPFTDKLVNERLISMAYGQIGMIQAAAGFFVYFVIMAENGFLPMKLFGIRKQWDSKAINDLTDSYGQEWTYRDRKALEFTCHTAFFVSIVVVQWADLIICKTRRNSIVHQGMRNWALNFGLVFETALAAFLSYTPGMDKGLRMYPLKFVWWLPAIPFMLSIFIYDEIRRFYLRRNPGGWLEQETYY
Sequence of S. gregaria-Na^+/K^+-ATPase (A0A8E5JSN5 1-1039): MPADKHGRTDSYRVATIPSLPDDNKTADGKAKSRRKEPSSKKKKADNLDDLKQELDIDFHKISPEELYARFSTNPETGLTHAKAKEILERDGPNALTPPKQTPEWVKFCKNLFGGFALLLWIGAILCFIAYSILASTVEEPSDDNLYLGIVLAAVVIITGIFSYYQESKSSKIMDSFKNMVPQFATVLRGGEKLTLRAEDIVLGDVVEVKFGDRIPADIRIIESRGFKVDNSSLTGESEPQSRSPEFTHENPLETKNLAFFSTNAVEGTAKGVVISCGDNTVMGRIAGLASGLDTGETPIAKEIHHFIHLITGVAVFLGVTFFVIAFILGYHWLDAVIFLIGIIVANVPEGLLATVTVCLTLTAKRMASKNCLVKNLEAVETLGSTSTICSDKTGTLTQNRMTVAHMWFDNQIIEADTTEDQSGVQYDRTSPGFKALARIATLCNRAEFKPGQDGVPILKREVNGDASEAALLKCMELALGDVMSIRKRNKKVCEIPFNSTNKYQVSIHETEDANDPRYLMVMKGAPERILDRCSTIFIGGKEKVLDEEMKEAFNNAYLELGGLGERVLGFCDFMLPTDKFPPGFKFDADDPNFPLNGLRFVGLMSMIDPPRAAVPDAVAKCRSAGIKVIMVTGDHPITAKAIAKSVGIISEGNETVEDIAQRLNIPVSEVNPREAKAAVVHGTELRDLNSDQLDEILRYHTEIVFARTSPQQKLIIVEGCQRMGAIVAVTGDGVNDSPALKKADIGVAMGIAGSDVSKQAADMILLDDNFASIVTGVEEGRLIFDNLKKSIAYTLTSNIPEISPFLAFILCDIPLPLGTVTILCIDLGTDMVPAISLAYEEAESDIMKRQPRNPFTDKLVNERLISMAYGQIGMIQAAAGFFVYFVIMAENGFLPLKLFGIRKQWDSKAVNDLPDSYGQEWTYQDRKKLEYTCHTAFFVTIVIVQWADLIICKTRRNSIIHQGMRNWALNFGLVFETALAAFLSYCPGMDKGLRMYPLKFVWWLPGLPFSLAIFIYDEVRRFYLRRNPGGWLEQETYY

Turning to `CO[C@H]1C[C@H](O[C@H]2CC[C@@]3(C)[C@H](CC[C@@H]4[C@@H]3CC[C@]3(C)[C@@H](C5=CC(=O)OC5)[C@@H](OC(C)=O)C[C@]43O)C2)O[C@@H](C)[C@@H]1O` [oleandrin], in data set [1], the “inhibition of D. plexippus Na^+/K^+-ATPase compared to ouabain” value was “> ouabain; F2,6 = 252.64, p < 0.001” and the IC50 is 3680 nM. Moreover, in data set [2] (SG, F-test comparison of entire dose-response curves with ouabain), the “inhibition of S. gregaria Na^+/K^+-ATPase compared to ouabain” value is listed as “= ouabain; F2,6 = 2.24, p = 0.19”. Further, the IC50 in data set [2] was found to be 834 nM. Also, the solubility in “physchem” is less than 100 µM.

`CC12CCC(O)CC1CCC1C2CCC2(C)C(C3=CC(=O)OC3)CCC12O` (centres unmarked) [uzarigenin]: in data set [1], the “inhibition of D. plexippus Na^+/K^+-ATPase compared to ouabain” value is on record as “> ouabain; F2,6 = 5.73, p = 0.04” and the IC50 came to 16000 nM. In addition, the “inhibition of D. plexippus Na^+/K^+-ATPase compared to 5β equivalent digitoxigenin” value in data set [1] (setting [4]) is listed as “no difference”. Also, on E. core-Na^+/K^+-ATPase, the “inhibition of E. core Na^+/K^+-ATPase compared to ouabain” value is on record as “< ouabain; F2,6 = 53.30, p < 0.001” and the IC50 came out at 4580 nM. For the same compound, the “inhibition of E. core Na^+/K^+-ATPase compared to 5β equivalent digitoxigenin” value on E. core-Na^+/K^+-ATPase (setting [4]) is “no difference”. Moreover, in the data set “physchem” (ambient conditions), the “solubility compared to 5-β-isomer digitoxigenin” value is on record as “at least three to four times lower; also recorded: strongly reduced”. This compound came in with a solubility in “physchem” of less than 100 µM.

In the case of `C[C@@H]1O[C@@H](O[C@H]2C[C@@H](O)[C@]3(CO)[C@H]4[C@H](O)C[C@]5(C)[C@@H](C6=CC(=O)OC6)CC[C@]5(O)[C@@H]4CC[C@]3(O)C2)[C@H](O)[C@H](O)[C@H]1O` [ouabain, reference compound], the IC50 was 94000 nM in data set [1], 997 nM in data set [2], 1030 nM at E. core-Na^+/K^+-ATPase and 486 nM against porcine Na^+/K^+-ATPase.

Turning to `CO[C@@H]1C[C@H](O[C@H]2CC[C@@]3(C)[C@H](CC[C@@]45O[C@@]46CC[C@H](C4=CC(=O)OC4)[C@@]6(C)CC[C@H]35)C2)O[C@H](C)[C@@H]1O` [adynerin], the “cardiotonic activity in vertebrates” value in data set [3] was “lack cardiotonic activity”. Also, the “inhibition of S. gregaria-Na^+/K^+-ATPase (in words)” value in data set [2] (Supplementary Figure 2) is on record as “lack of inhibition; also recorded: failed to inhibit”.

With `C[C@]12CC[C@H](O[C@@H]3O[C@H](CO[C@@H]4O[C@H](CO)[C@@H](O)[C@H](O)[C@H]4O)[C@@H](O)[C@H](O)[C@H]3O)C[C@@H]1CC[C@@H]1[C@@H]2CC[C@]2(C)[C@@H](C3=CC(=O)OC3)CC[C@]12O` [uzarin], in data set [1], the “inhibition of D. plexippus Na^+/K^+-ATPase compared to ouabain” value is “substantially stronger inhibition than ouabain; also recorded: > ouabain; F2,7 = 70.04, p < 0.001” and the IC50 came out at 18800 nM. Also, in data set [1] (Figure 2, last number, S. gregaria values used for ouabain and digitoxigenin), the “fold difference between IC50 values, non-adapted (E. core/S. gregaria) vs adapted (D. plexippus) insect Na^+/K^+-ATPase” value was determined as 6 x. On E. core-Na^+/K^+-ATPase, the “inhibition of E. core Na^+/K^+-ATPase compared to ouabain” value is on record as “far weaker inhibition than ouabain; also recorded: < ouabain; F2,7 = 39.97, p < 0.001” and the IC50 is 2910 nM. Further, in the data set on porcine Na^+/K^+-ATPase (F-test comparison of dose-response curves with ouabain), the “inhibition of porcine Na^+/K^+-ATPase compared to ouabain” value is “not different from the effect of ouabain”. Further, the IC50 against porcine Na^+/K^+-ATPase is 452 nM.

Usually solubility stands for the dissolved amount per volume that the medium holds. Low readings indicate little dissolved substance, high ones much dissolved substance.
